Experimental data reported in patent US8106155B2, “Test kit for determining process for determining antibiotics containing a beta-lactam ring in a biological fluid” (Neogen Corporation, priority 1998, dated 2012).

What was measured:
BlaR-CTD receptor [1] = target: T1, BlaR-CTD receptor (Bacillus licheniformis, UniProt P12287); test: 3-minute rapid test: BlaR-CTD coupled to gold beads, membrane test device, milk; format: binding; details: test carried out in 3 minutes, 47° C.; positive when 1st band less intense than 2nd band
T1 construct: uses the BlaR-CTD receptor coupled to gold beads
T1 sequence (P12287 354-601): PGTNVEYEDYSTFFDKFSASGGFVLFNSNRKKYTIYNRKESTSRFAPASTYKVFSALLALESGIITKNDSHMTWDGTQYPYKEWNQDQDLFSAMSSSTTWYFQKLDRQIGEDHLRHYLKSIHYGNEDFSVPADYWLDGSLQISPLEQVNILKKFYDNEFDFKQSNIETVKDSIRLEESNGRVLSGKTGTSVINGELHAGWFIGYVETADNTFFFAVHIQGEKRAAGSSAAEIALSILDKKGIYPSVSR
Protocol: (§1) This example illustrates the detection in milk of antibiotics containing a β-lactam ring, which are controlled by the health authorities. The test described in this example uses the BlaR-CTD receptor coupled to gold beads which serve as labelling agents, and uses a support in the form of a test device comprising a solid support to which membranes are attached.
7 samples of fresh milk containing 0; 1; 2; 3; 4; 5 and 6 ppb of penicillin G, respectively, are prepared. Each of these solutions is then analyzed in the following way:
A 200 μl aliquot sample of milk and 45.27 μl of solution prepared in Example 1.1.3 are taken and placed in a glass flask. This mixture is incubated for 1 minute at 47° C. A test device is taken and placed vertically in the glass flask such that the first end of the test device is in contact with the mixture and such that the second end rests on the wall of the glass flask. The mixture is left to migrate on the test device, while incubating the assembly for 2 minutes at 47° C.
An intensity value ranging from 0 to 10 is attributed to the bands detected, the value 10 being given to the most intense band and the value 0 being given to the least intense band. According to this scale, a value of 6 is assigned to the reference band. The intensity of the signal observed in the first band is inversely proportional to the amount of penicillin G present in the sample.
(§2) In this example, when the first band has an intesity less than that of the second band, the test is considered as being positive.

BlaR-CTD receptor [2] = target: T1, BlaR-CTD receptor; test: 5-minute test: BlaR-CTD coupled to gold beads, membrane test device, milk; format: binding; details: 47° C.; for concentration detected in a sample of milk: test carried out in 5 minutes, positive when 1st band less intense than 2nd band; for Intensity 1st band: 5-minute test, scale 0 to 10, reference band 6
Protocol: as §1
6 samples of fresh milk containing 0; 2; 4; 6; 8 and 10 ppb of cloxacillin, respectively, are prepared. Each of these solutions is then analyzed in the following way.
A 200 μl aliquot sample of milk and 45.27 μl of solution prepared in Example 1.1.3 are taken and placed in a glass flask. This mixture is incubated for 3 minutes at 47° C. A test device is taken and placed vertically in the glass flask such that the first end of the test device is in contact with the mixture and such that the second end rests on the wall of the glass flask. The mixture is left to migrate on the test device, while incubating the assembly for 2 minutes at 47° C.
An intensity value ranging from 0 to 10 is attributed to the bands detected, the value 10 being given to the most intense band and the value 0 being given to the least intense band. According to this scale, a value of 6 is assigned to the reference band. The intensity of the signal observed in the first band is inversely proportional to the amount of cloxacillin present in the sample.
as §2

BlaR-CTD receptor [3] = target: T1, BlaR-CTD receptor; test: 9-minute test: BlaR-CTD coupled to gold beads, membrane test device, milk; format: binding; details: test carried out in 9 minutes, 47° C.; positive when 1st band less intense than 2nd band
Protocol: as §1
6 samples of fresh milk containing 0; 4; 6; 8; 10 and 12 ppb of cephapirin, respectively, are prepared. Each of these solutions is then analyzed in the following way.
A 200 μl aliquot sample of milk and 45.27 μl of solution prepared in Example 1.1.3 are taken and placed in a glass flask. This mixture is incubated for 7 minutes at 47° C. A test device is taken and placed vertically in the glass flask such that the first end of the test device is in contact with the mixture and such that the second end rests on the wall of the glass flask. The mixture is left to migrate on the test device, while incubating the assembly for 2 minutes at 47° C.
An intensity value ranging from 0 to 10 is attributed to the bands detected, the value 10 being given to the most intense band and the value 0 being given to the least intense band. According to this scale, a value of 6 is assigned to the reference band. The intensity of the signal observed in the first band is inversely proportional to the amount of cephapirin present in the sample.
as §2

[4] = system: protein isolated from an antibiotic-sensitive microorganism, such as Bacillus stearothermophilus; details: Example 1 of European Patent Application 593 112; cited from earlier work
[5] = target: T2, BlaR-CTD receptor in the form of two fusion proteins with alkaline phosphatase and peroxidase (Bacillus licheniformis, UniProt P12287); test: Example 3: BlaR-CTD fusion proteins with alkaline phosphatase and peroxidase, cephalosporin C microplate, milk; format: binding; details: absorbance at 405 nm, 47° C., at the control thresholds required by the US authorities
T2 construct: uses the BlaR-CTD receptor in the form of two fusion proteins with alkaline phosphatase and peroxidase, respectively; alkaline phosphatase, chemically coupled (Boehringer-Mannheim 1464752); peroxidase, chemically coupled (Boehringer-Mannheim 1428861)
T2 sequence (P12287 354-601): as above
From the text: This example illustrates the detection in milk of 3 antibiotics containing a β-lactam ring which are controlled by the health authorities. The test described in this example uses the BlaR-CTD receptor in the form of two fusion proteins with alkaline phosphatase and peroxidase, respectively, and uses a support in the form of a microplate.
Polystyrene microplates with high protein adsorption, of the brand name NUNK (Immuno Plate: Maxisorp type) or of the brand name GREINER (microlon 600, reference 705071), are used. The microplate cuvettes are washed with 150 mM, pH 7.2 PBS buffer. Next, an aliquot of the solution prepared in Example 3.3.1. is incubated for 24 hours at 4° C. in the cuvettes. After incubation, the cuvettes are washed three times with 150 mM, pH 7.2 PBS buffer, 0.1% Tween-20. The tube is then saturated for two hours at 20° C. with 150 mM, pH 7.2 PBS saturation buffer, 5% BSA. After washing three times with washing buffer, the tubes are dried and stored at 4° C. away from moisture.
For the cuvettes intended for the BlaR-CTD-alkaline phosphatase recognition agent, the washing buffer used is 1 M, pH 9.8 diethanolamine, 0.5 mM MgCl2: for the cuvettes intended for the BlaR-CTD-peroxidase recognition agent, the washing buffer used is 50 mM, pH 5 potassium phosphate.
1.4 picomol of labelled recognition agent are incubated in the presence of 100 μl of doped milk for 5 minutes at 47° C. The milk is transferred using a pipette into a cuvette which has been pretreated as indicated in Example 2.3. The milk is then incubated for 2 minutes at 47° C. […] The plate is then placed in an automatic spectrophotometer for ELISA plates, the wavelength being set at 405 nm.

With `CC1(C)S[C@@H]2[C@H](NC(=O)[C@H](N)c3ccc(O)cc3)C(=O)N2[C@H]1C(=O)O` [amoxicillin] the “concentration detected in a sample of milk” value (BlaR-CTD receptor [1]) was 5 ppb, the “concentration detected in a sample of milk” value (BlaR-CTD receptor [2]) was 4 ppb and the “concentration detected in a sample of milk” value (BlaR-CTD receptor [3]) was 4 ppb. The concentration detected [4] was 5 ppb.
In the case of `CC1(C)S[C@@H]2[C@H](NC(=O)[C@H](N)c3ccccc3)C(=O)N2[C@H]1C(=O)O` [ampicillin], the “concentration detected in a sample of milk” value (BlaR-CTD receptor [1]) is reported as 5 ppb, the “concentration detected in a sample of milk” value (BlaR-CTD receptor [2]) is reported as 4 ppb and the “concentration detected in a sample of milk” value (BlaR-CTD receptor [3]) is reported as 4 ppb. The concentration detected [4] was 10 ppb.
For `Cc1nnc(SCC2=C(C(=O)O)N3C(=O)[C@@H](NC(=O)Cn4cnnn4)[C@H]3SC2)s1` [cefazoline], the “concentration detected in a sample of milk” value (BlaR-CTD receptor [2]) was 60 ppb and the “concentration detected in a sample of milk” value (BlaR-CTD receptor [3]) was 45 ppb.
With `CO/N=C(\C(=O)N[C@@H]1C(=O)N2C(C(=O)[O-])=C(C[n+]3cccc4c3CCCC4)CS[C@H]12)c1csc(N)n1` [cefquinone] the “concentration detected in a sample of milk” value (BlaR-CTD receptor [2]) was “less than 20 ppb”.
With `Cc1onc(-c2ccccc2Cl)c1C(=O)N[C@@H]1C(=O)N2[C@@H]1SC(C)(C)[C@@H]2C(=O)O` [cloxacillin] the “concentration detected in a sample of milk” value (BlaR-CTD receptor [1]) was “less than 10 ppb”, the “Intensity 1st band” value (BlaR-CTD receptor [2]; 2 ppb cloxacillin in milk) was 6 and the “Intensity 1st band” value (BlaR-CTD receptor [2]; 4 ppb cloxacillin in milk) was 5. The “Intensity 1st band” value (BlaR-CTD receptor [2]; 6 ppb cloxacillin in milk) was 3, the “Intensity 1st band” value (BlaR-CTD receptor [2]; 8 ppb cloxacillin in milk) was 3 and the “Intensity 1st band” value (BlaR-CTD receptor [2]; 10 ppb cloxacillin in milk) was 3. The “concentration detected in a sample of milk” value (BlaR-CTD receptor [2]) was “less than 4 ppb”, the “concentration detected in a sample of milk” value (BlaR-CTD receptor [3]) was 4 ppb and the “concentration detected in milk” value [5] was 10 ppb.
In the case of `Cc1onc(-c2c(Cl)cccc2Cl)c1C(=O)N[C@@H]1C(=O)N2[C@@H]1SC(C)(C)[C@@H]2C(=O)O` [dicloxacillin], the “concentration detected in a sample of milk” value (BlaR-CTD receptor [2]) is reported as 8 ppb.
With `CCOc1ccc2ccccc2c1C(=O)N[C@@H]1C(=O)N2[C@@H]1SC(C)(C)[C@@H]2C(=O)O` [nafcillin] the “concentration detected in a sample of milk” value (BlaR-CTD receptor [2]) was 20 ppb.
For `Cc1onc(-c2ccccc2)c1C(=O)N[C@@H]1C(=O)N2[C@@H]1SC(C)(C)[C@@H]2C(=O)O` [oxacillin], the “concentration detected in a sample of milk” value (BlaR-CTD receptor [2]) was 8 ppb.
